These are literature values, as cited in patent US20080255132A1, “Combination Therapy Comprising the Use of Et-743 and Paclitaxel for Treating Cancer” (priority 2003, published 2008).

The test system of series [1] is sarcoma and breast and ovarian carcinoma. To be noted: phase I, 1-, 3-, 24-, 72-hour i.v. infusion and 1 hour daily x5 schedules.
In series [2] the test system is human tumor xenografts, including melanoma and ovarian and breast carcinoma. To be noted: human tumor xenografts grown in athymic mice. (Xenograft models place foreign cells or tissue in a host animal.)

Turning to `COc1cc2c(cc1O)CCN[C@]21CS[C@@H]2c3c(OC(C)=O)c(C)c4c(c3[C@H](COC1=O)N1[C@@H]2[C@H]2c3c(cc(C)c(OC)c3O)C[C@@H]([C@@H]1O)N2C)OCO4` [ET-743, ecteinascidin 743], in series [1], the Responses result is recorded as “Promising responses”. Besides, the Antineoplastic activity entry in series [2] is listed as “potent antineoplastic activity”.
